Measurements as given in patent US11066396B2 (priority 2016, dated 2021).
pIC50: −log10 of the molar value.

What was measured:
HDAC5 = HDAC5 (Homo sapiens (Human), UniProt Q9UQL6); details: read-out: HDAC5 IC50
HDAC8 = HDAC8 (Homo sapiens (Human), UniProt Q9BY41); details: read-out: HDAC8 IC50
HDAC1 = HDAC1 (Homo sapiens (Human), UniProt Q13547); details: read-out: HDAC1 IC50
HDAC1, sequence (Q13547 whole entry): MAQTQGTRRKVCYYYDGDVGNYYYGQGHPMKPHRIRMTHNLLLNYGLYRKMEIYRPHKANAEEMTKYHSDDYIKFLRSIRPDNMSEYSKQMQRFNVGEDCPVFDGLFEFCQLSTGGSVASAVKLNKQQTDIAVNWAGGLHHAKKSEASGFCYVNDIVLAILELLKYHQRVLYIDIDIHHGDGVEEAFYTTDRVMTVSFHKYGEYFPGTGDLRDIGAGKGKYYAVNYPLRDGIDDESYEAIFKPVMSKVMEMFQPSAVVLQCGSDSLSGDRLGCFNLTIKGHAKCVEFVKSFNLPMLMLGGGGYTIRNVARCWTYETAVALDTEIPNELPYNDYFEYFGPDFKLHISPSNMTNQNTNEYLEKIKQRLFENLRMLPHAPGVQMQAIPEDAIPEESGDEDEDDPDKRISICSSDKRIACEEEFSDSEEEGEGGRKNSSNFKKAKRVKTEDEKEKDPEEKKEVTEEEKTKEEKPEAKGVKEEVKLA

HDAC5, sequence (Q9UQL6 656-1122): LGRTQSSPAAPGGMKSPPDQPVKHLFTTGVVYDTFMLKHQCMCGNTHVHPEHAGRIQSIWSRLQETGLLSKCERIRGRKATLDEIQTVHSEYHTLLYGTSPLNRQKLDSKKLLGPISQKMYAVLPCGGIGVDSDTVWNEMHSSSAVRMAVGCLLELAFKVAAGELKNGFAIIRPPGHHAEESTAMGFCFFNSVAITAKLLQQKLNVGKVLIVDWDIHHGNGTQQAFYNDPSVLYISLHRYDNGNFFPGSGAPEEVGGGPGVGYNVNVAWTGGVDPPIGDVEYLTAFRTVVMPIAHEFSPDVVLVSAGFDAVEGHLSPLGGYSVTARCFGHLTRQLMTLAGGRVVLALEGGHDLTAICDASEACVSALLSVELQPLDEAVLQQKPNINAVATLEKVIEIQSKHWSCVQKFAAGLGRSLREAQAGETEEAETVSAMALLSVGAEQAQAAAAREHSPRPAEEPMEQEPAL
HDAC8, sequence (Q9BY41 whole entry): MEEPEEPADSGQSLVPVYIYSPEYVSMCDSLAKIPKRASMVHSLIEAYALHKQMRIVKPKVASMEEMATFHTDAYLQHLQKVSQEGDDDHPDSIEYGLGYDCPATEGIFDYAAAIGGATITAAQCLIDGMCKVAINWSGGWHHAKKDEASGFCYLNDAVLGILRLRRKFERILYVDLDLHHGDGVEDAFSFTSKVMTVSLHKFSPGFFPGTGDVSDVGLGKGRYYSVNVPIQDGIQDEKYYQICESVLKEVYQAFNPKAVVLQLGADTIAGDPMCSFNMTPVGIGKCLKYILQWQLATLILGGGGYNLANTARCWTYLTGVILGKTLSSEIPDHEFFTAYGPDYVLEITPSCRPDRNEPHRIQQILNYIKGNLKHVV

Row | Compound | pIC50 (HDAC5) | pIC50 (HDAC8) | pIC50 (HDAC1)
1 | CC(C(=O)N(Cc1ccc(-c2noc(C(F)(F)F)n2)cn1)c1cccc(F)c1)c1ccn(C)n1 (racemic) [Example 58, N-(3-fluorophenyl)-2-(1-methyl-1H-pyrazol-3-yl)-N-((5-(5-(trifluoromethyl)-1,2,4-oxadiazol-3-yl)pyridin-2-yl)methyl)propanamide] | 6.14 | 5.77 | 6.66
2 | O=C1CCC(c2ccccc2F)N1c1ccc(-c2noc(C(F)(F)F)n2)cc1F (racemic) [Example 118, 1-(2-fluoro-4-(5-(trifluoromethyl)-1,2,4-oxadiazol-3-yl)phenyl)-5-(2-fluorophenyl)pyrrolidin-2-one] | 6.89 | 5.60 | 6.24
3 | O=C(C(Cc1ccc(-c2noc(C(F)(F)F)n2)cn1)c1cccc(C(F)(F)F)c1)N1CC[S+]([O-])CC1 (racemic) [Example 199, 4-(3-{5-[5-(trifluoromethyl)-1,2,4-oxadiazol-3-yl]pyridin-2-yl}-2-[3-(trifluoromethyl)phenyl]propanoyl)-llambda~4~,4-thiazinan-1-one] | 5.68 | 5.00 | 5.39
4 | CC(Oc1cc(-c2noc(C(F)(F)F)n2)ccn1)c1nc2ccccc2[nH]1 (racemic) [Example 203, 2-[1-({4-[5-(trifluoromethyl)-1,2,4-oxadiazol-3-yl]pyridin-2-yl}oxy)ethyl]-1H-benzimidazole] | 6.89 | 6.05 | 6.89
5 | CC(Oc1nccc(-c2noc(C(F)(F)F)n2)c1Cl)c1cccnc1 (racemic) [Example 256, 3-chloro-2-[1-(pyridin-3-yl)ethoxy]-4-[5-(trifluoromethyl)-1,2,4-oxadiazol-3-yl]pyridine] | 6.70 | 5.64 | 5.48
6 | O=C1NCCCC1NCc1ccc(-c2noc(C(F)(F)F)n2)cn1 (racemic) [Example 458, 3-[({5-[5-(trifluoromethyl)-1,2,4-oxadiazol-3-yl]pyridin-2-yl}methyl)amino]piperidin-2-one] | 6.54 | 5.55 | 5.08
7 | CC(C)C(=O)NC(Cc1ccc(-c2noc(C(F)(F)F)n2)cn1)c1cccc(C(F)(F)F)c1 (racemic) [Example 478, 2-methyl-N-(2-{5-[5-(trifluoromethyl)-1,2,4-oxadiazol-3-yl]pyridin-2-yl}-1-[3-(trifluoromethyl)phenyl]ethyl)propanamide] | 6.30 | 4.35 | 6.17
8 | CCCC(=O)NC(Cc1ccc(-c2noc(C(F)(F)F)n2)cn1)c1cccc(C(F)(F)F)c1 (racemic) [Example 479, N-(2-{5-[5-(trifluoromethyl)-1,2,4-oxadiazol-3-yl]pyridin-2-yl}-1-[3-(trifluoromethyl)phenyl]ethyl)butanamide] | 6.36 | 4.35 | 6.21
9 | COCC(=O)NC(Cc1ccc(-c2noc(C(F)(F)F)n2)cn1)c1cccc(C(F)(F)F)c1 (racemic) [Example 480, 2-methoxy-N-(2-{5-[5-(trifluoromethyl)-1,2,4-oxadiazol-3-yl]pyridin-2-yl}-1-[3-(trifluoromethyl)phenyl]ethyl)acetamide] | 6.21 | 5.28 | 6.17
10 | CC1(C(=O)NC(Cc2ccc(-c3noc(C(F)(F)F)n3)cn2)c2cccc(C(F)(F)F)c2)COC1 (racemic) [Example 482, 3-methyl-N-(2-{5-[5-(trifluoromethyl)-1,2,4-oxadiazol-3-yl]pyridin-2-yl}-1-[3-(trifluoromethyl)phenyl]ethyl)oxetane-3-carboxamide] | 6.32 | 5.07 | 6.10
11 | O=C(NC(Cc1ccc(-c2noc(C(F)(F)F)n2)cn1)c1cccc(C(F)(F)F)c1)C1CCOCC1 (racemic) [Example 483, N-(2-{5-[5-(trifluoromethyl)-1,2,4-oxadiazol-3-yl]pyridin-2-yl}-1-[3-(trifluoromethyl)phenyl]ethyl)oxane-4-carboxamide] | 6.29 | 5.21 | 6.20
12 | O=C(NC(Cc1ccc(-c2noc(C(F)(F)F)n2)cn1)c1cccc(C(F)(F)F)c1)c1ncccn1 (racemic) [Example 484, N-(2-{5-[5-(trifluoromethyl)-1,2,4-oxadiazol-3-yl]pyridin-2-yl}-1-[3-(trifluoromethyl)phenyl]ethyl)pyrimidine-2-carboxamide] | 6.14 | 5.60 | 6.22
13 | O=C(CN1CCOCC1)NC(Cc1ccc(-c2noc(C(F)(F)F)n2)cn1)c1cccc(C(F)(F)F)c1 (racemic) [Example 485, 2-(morpholin-4-yl)-N-(2-{5-[5-(trifluoromethyl)-1,2,4-oxadiazol-3-yl]pyridin-2-yl}-1-[3-(trifluoromethyl)phenyl]ethyl)acetamide] | 5.96 | 4.96 | 5.96
14 | O=C(NC(Cc1ccc(-c2noc(C(F)(F)F)n2)cn1)c1cccc(C(F)(F)F)c1)c1cccnc1 (racemic) [Example 487, N-(2-{5-[5-(trifluoromethyl)-1,2,4-oxadiazol-3-yl]pyridin-2-yl}-1-[3-(trifluoromethyl)phenyl]ethyl)pyridine-3-carboxamide] | 6.42 | 5.28 | 6.17
15 | O=C1COC[C@@H](c2ccccc2)N1c1ccc(-c2noc(C(F)(F)F)n2)c(F)c1 [Example 2, (R)-4-(3-Fluoro-4-(5-(trifluoromethyl)-1,2,4-oxadiazol-3-yl)phenyl)-5-phenylmorpholin-3-one] | 7.74 | 5.34 | 6.32
16 | Cc1noc([C@@H]2CCC(=O)N2c2ccc(-c3noc(C(F)(F)F)n3)c(F)c2F)n1 [Example 12, (S)-1-(2,3-Difluoro-4-(5-(trifluoromethyl)-1,2,4-oxadiazol-3-yl)phenyl)-5-(3-methyl-1,2,4-oxadiazol-5-yl)pyrrolidin-2-one] | 7.96 | 5.22 | 5.70
17 | O=C1OC[C@@H](c2ccccc2)N1c1cc(F)c(-c2noc(C(F)(F)F)n2)cc1F [Example 16, (R)-3-(2,5-Difluoro-4-(5-(trifluoromethyl)-1,2,4-oxadiazol-3-yl)phenyl)-4-phenyloxazolidin-2-one] | 7.72 | 5.22 | 6.00
18 | O=C(C1CCS(=O)(=O)CC1)N(Cc1ccc(-c2noc(C(F)(F)F)n2)cc1)c1cccc(C(F)(F)F)c1 [Example 30, N-(4-(5-(Trifluoromethyl)-1,2,4-oxadiazol-3-yl)benzyl)-N-(3-(trifluoromethyl)phenyl)tetrahydro-2H-thiopyran-4-carboxamide 1,1-dioxide] | 5.92 | 5.37 | 5.87
19 | O=C1CNCC(c2ccccc2)N1c1ccc(-c2noc(C(F)(F)F)n2)cc1 (centres unmarked) [Example 39, 6-phenyl-1-(4-(5-(trifluoromethyl)-1,2,4-oxadiazol-3-yl)phenyl)piperazin-2-one] | 7.60 | 5.80 | 6.26
20 | O=C1CCCC(c2ccccc2)N1c1ccc(-c2noc(C(F)(F)F)n2)cc1 (centres unmarked) [Example 40, 6-phenyl-1-(4-(5-(trifluoromethyl)-1,2,4-oxadiazol-3-yl)phenyl)piperidin-2-one] | 7.47 | 6.10 | 6.39
21 | O=C1CCC(c2ccccc2)N1c1cc(F)c(-c2noc(C(F)(F)F)n2)cc1F (centres unmarked) [Example 41, 1-(2,5-difluoro-4-(5-(trifluoromethyl)-1,2,4-oxadiazol-3-yl)phenyl)-5-phenylpyrrolidin-2-one] | 7.72 | 5.22 | 6.21
22 | O=C1CCC(c2ccccc2)N1c1ccc(-c2noc(C(F)(F)F)n2)cc1F (centres unmarked) [Example 42, 1-(2-fluoro-4-(5-(trifluoromethyl)-1,2,4-oxadiazol-3-yl)phenyl)-5-phenylpyrrolidin-2-one] | 7.57 | 5.85 | 6.28
23 | O=C1CCC(c2ccccc2)N1c1ccc(-c2noc(C(F)(F)F)n2)c(F)c1 (centres unmarked) [Example 43, 1-(3-fluoro-4-(5-(trifluoromethyl)-1,2,4-oxadiazol-3-yl)phenyl)-5-phenylpyrrolidin-2-one] | 7.13 | 5.44 | 5.72
24 | O=C(N1CCOCC1)N(Cc1ccc(-c2noc(C(F)(F)F)n2)cn1)c1cccc(C(F)(F)F)c1 [Example 49, N-((5-(5-(trifluoromethyl)-1,2,4-oxadiazol-3-yl)pyridin-2-yl)methyl)-N-(3-(trifluoromethyl)phenyl)morpholine-4-carboxamide] | 5.72 | 5.00 | 6.00
25 | O=C(C1CCS(=O)(=O)CC1)N(Cc1ccc(-c2noc(C(F)(F)F)n2)cn1)c1cccc(F)c1 [Example 55, N-(3-fluorophenyl)-N-((5-(5-(trifluoromethyl)-1,2,4-oxadiazol-3-yl)pyridin-2-yl)methyl)tetrahydro-2H-thiopyran-4-carboxamide 1,1-dioxide] | 5.96 | 5.64 | 6.60
26 | O=C(C1CCOCC1)N(Cc1ccc(-c2noc(C(F)(F)F)n2)cn1)c1cccc(F)c1 [Example 60, N-(3-fluorophenyl)-N-((5-(5-(trifluoromethyl)-1,2,4-oxadiazol-3-yl)pyridin-2-yl)methyl)tetrahydro-2H-pyran-4-carboxamide] | 6.19 | 5.68 | 6.64
27 | O=C(Cn1cncn1)N(Cc1ccc(-c2noc(C(F)(F)F)n2)cc1)c1cccc(C(F)(F)F)c1 [Example 68, 2-(1H-1,2,4-triazol-1-yl)-N-(4-(5-(trifluoromethyl)-1,2,4-oxadiazol-3-yl)benzyl)-N-(3-(trifluoromethyl)phenyl)acetamide] | 6.30 | 5.70 | 6.16
28 | CCS(=O)(=O)N(Cc1ccc(-c2noc(C(F)(F)F)n2)cc1)c1cccc(C(F)(F)F)c1 [Example 491, N-({4-[5-(trifluoromethyl)-1,2,4-oxadiazol-3-yl]phenyl}methyl)-N-[3-(trifluoromethyl)phenyl]ethanesulfonamide] | 6.85 |  | 6.09
